Experimental data as given in US9096591B2, “Tetracyclic compounds” (Medivation Technologies, Inc., priority 2007, dated 2015).
Like-named read-outs stand apart in the source and are kept apart here.

Assays:
[1] = target: T1, human recombinant serotonin (5-Hydroxytryptamine) 5-HT2C receptor (Homo sapiens, UniProt P28335); assay: Serotonin 5-HT2C radioligand binding ([3H]Mesulergine); design: Inhibition of ligand binding, Ser. 5-HT2C: concentration or dose not given beside the values; settings: percent inhibition of specific binding
T1 construct: expressed in transfected cells; host or cells: CHO-K1 cells
T1 sequence (P28335 33-458): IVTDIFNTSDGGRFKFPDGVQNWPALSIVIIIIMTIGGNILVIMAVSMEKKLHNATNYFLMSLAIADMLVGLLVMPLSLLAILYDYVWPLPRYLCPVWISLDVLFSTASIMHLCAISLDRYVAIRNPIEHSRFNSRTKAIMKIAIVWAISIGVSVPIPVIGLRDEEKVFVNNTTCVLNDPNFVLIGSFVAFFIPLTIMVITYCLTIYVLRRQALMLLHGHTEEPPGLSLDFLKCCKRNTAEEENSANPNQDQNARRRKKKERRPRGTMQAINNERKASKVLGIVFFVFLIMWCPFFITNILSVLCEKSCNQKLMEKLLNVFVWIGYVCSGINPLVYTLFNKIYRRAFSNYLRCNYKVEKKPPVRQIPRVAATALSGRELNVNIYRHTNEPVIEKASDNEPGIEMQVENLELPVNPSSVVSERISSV
Procedure: (§1) Compounds of the invention were incubated with 1 nM [^3H]Mesulergine for 60 minutes at 25° C. Non-specific binding was estimated in the presence of 1 μM Mianserin. Receptor proteins were filtered and washed, the filters were then counted to determine [^3H]Mesulergine specifically bound. […] Biochemical assay results are presented as the percent inhibition of specific binding in Table 6.

[2] = target: T2, human recombinant dopamine D2L receptor (Homo sapiens, UniProt P14416); assay: Dopamine D2L radioligand binding ([3H]Spiperone); settings: percent inhibition of specific binding
T2 construct: expressed in transfected cells; host or cells: CHO cells
Procedure: Non-specific binding was estimated in the presence of 10 μM Haloperidol. Receptor proteins were filtered and washed, the filters were then counted to determine [^3H]Spiperone specifically bound. […] Biochemical assay results are presented as the percent inhibition of specific binding in Table 6.

[3] = target: T3, human recombinant histamine H2 receptor (Homo sapiens, UniProt P25021); assay: Histamine H2 radioligand binding ([125I]Aminopotentidine); settings: read-out: Inhibition of ligand binding, Hist. H2
T3 construct: expressed in transfected cells; host or cells: CHO-K1 cells
Method in brief: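 Test compounds were assessed for their ability to displace radioligand from the human recombinant histamine H2 receptor. Non-specific binding was determined in the presence of 3 μM Tiotidine, and results were expressed as percent inhibition of specific binding, with 1% DMSO serving as the vehicle.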

[4] = target: T4, human recombinant histamine H1 receptor (Homo sapiens, UniProt P35367); assay: Histamine H1 radioligand binding ([3H]Pyrilamine); settings: read-out: Inhibition of ligand binding, Hist. H1
T4 construct: expressed in transfected cells; host or cells: CHO cells
Method in brief: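 Receptor expressed in CHO cells, assayed in 50 mM Tris-HCl pH 7.4 with 2 mM MgCl2, 100 mM NaCl, 250 mM sucrose. Compounds tested at 1 μM in 1% DMSO; non-specific binding set with 1 μM pyrilamine. Filter-bound radioactivity counted; values are percent inhibition of specific binding.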

[5] = target: T5, human recombinant serotonin (5-Hydroxytryptamine) 5-HT2A receptor (Homo sapiens, UniProt P28223); assay: Serotonin 5-HT2A radioligand binding ([3H]Ketanserin); settings: percent inhibition of specific binding
T5 construct: expressed in transfected cells; host or cells: CHO-K1 cells
Procedure: as §1, with “with 0.5” for “with 1”, “nM [^3H]Ketanserin” for “nM [^3H]Mesulergine”, “determine [^3H]Ketanserin” for “determine [^3H]Mesulergine”

[6] = target: T6, human recombinant adrenergic α2B receptor (Homo sapiens, UniProt P18089); assay: Adrenergic α2B radioligand binding ([3H]Rauwolscine); design: Inhibition of ligand binding, Adren. alpha2B: concentration or dose not given beside the values; settings: percent inhibition of specific binding
T6 construct: expressed in transfected cells; host or cells: CHO-K1 cells
T6 sequence (P18089 1-450): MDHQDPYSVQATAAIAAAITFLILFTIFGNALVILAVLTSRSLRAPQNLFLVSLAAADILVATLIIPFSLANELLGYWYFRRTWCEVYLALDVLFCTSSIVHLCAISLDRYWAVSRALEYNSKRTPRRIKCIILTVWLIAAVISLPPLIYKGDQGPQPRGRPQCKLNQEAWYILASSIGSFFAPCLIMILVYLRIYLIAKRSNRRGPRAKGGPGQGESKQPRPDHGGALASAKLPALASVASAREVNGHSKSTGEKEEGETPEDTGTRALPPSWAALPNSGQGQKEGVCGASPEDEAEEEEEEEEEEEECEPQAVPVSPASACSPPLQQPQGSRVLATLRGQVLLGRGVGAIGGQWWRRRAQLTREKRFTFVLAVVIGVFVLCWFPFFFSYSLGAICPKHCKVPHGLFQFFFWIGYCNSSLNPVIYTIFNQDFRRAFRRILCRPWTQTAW
Method in brief: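 Membranes from CHO-K1 cells expressing the receptor, in 50 mM Tris-HCl pH 7.4 with 12.5 mM MgCl2, 1 mM EDTA, 0.2% BSA, incubated with compounds and 2.5 nM [3H]Rauwolscine for 60 minutes at 25 °C.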

[7] = percent inhibition of specific binding, screened at 1 μM

T4 sequence (P35367 whole entry): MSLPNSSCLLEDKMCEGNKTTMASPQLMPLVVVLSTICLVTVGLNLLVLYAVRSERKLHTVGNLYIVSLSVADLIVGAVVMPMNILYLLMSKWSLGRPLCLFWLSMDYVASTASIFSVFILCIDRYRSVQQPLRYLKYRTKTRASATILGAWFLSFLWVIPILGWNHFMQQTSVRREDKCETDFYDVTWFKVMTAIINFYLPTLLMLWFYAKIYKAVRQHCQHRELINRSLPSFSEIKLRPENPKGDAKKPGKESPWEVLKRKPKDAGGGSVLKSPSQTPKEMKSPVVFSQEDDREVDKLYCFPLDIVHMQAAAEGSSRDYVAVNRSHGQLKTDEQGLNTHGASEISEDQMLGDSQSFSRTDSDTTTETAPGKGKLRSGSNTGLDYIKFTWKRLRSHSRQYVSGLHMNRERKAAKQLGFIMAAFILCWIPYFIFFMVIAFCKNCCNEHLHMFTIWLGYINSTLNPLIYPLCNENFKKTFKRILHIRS
T3 sequence (P25021 whole entry): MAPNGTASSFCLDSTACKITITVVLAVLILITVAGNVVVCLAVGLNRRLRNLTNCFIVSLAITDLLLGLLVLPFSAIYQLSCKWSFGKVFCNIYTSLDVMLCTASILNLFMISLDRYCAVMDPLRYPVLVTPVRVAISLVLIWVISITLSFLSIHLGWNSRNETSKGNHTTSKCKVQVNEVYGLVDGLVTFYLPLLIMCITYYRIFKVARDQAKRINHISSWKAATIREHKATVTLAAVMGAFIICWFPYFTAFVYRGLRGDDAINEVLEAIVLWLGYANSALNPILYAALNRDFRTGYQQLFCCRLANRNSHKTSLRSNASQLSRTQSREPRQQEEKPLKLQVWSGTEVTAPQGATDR
T5 sequence (P28223 whole entry): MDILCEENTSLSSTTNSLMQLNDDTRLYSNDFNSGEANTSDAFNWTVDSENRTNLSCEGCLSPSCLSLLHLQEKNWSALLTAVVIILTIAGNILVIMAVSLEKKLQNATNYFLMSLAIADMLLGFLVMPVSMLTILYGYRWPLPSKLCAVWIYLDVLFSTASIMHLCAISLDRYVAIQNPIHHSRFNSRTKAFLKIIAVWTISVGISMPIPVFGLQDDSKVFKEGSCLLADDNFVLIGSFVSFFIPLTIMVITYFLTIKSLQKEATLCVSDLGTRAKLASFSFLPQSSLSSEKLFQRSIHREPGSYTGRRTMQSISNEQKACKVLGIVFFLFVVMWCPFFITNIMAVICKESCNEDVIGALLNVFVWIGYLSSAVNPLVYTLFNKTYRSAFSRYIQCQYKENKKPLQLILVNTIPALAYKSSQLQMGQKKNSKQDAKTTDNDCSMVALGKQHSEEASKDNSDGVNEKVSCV
T2 sequence (P14416 whole entry): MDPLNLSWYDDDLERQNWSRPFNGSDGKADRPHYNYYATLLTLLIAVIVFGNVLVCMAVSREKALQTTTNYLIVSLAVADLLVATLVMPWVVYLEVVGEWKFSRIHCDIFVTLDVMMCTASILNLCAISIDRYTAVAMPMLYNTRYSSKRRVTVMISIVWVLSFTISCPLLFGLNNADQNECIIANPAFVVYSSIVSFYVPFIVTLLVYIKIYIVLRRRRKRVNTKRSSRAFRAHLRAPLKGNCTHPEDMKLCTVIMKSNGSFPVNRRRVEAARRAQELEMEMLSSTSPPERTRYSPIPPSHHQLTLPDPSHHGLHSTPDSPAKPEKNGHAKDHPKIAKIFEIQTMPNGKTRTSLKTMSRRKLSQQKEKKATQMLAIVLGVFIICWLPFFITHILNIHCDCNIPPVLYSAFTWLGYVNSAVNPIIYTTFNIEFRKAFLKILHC

Row | SMILES | Inhibition of ligand binding, Ser. 5-HT2C [1] [%] | Inhibition of ligand binding, Dop. D2L [2] [%] | inhibition at 1 µM [3] [%] | inhibition at 1 µM [4] [%] | Inhibition of ligand binding, Ser. 5-HT2A [5] [%] | Inhibition of ligand binding, Adren. alpha2B [6] [%] | inhibition at 1 µM [3, 7] [%] | inhibition at 1 µM [4, 7] [%]
1 | Cc1ccc(CCn2c3c(c4cc(Cl)ccc42)CN(C)CC3)cn1 [Compound 225, 8-chloro-2,3,4,5-tetrahydro-2-methyl-5-(2-(6-methylpyridin-3-yl)ethyl)-1H-pyrido[4,3-b]indole] | 91 | 32 | 72 | 101 | 92 | 107 |  | 
2 | Cc1ccc(CCn2c3c(c4cc(CO)ccc42)CN(C)CC3)cn1 [Compound 263] | 31 | −4 |  |  | 24 | 105 | 15 | 95
3 | CN1CCc2c(c3cc(Cl)cc(F)c3n2CCc2ccc(C(F)(F)F)nc2)C1 [Compound 338, 8-chloro-6-fluoro-5-(2-(6-(trifluoromethyl)pyridin-3-yl)ethyl)-2,3,4,5-tetrahydro-2-methyl-1H-pyrido[4,3-b]indole] | 68 | 22 |  |  | 94 | 104 | 78 | 96
4 | CN1CCc2c(c3cc(OC(F)(F)F)ccc3n2CCc2ccc(C(F)(F)F)nc2)C1 [Compound 341, 5-(2-(6-(trifluoromethyl)pyridin-3-yl)ethyl)-2,3,4,5-tetrahydro-2-methyl-8-(trifluoromethoxy)-1H-pyrido[4,3-b]indole] | 16 | 8 |  |  | 39 | −1 | 15 | 28
5 | CC(C)c1ccc2c(c1)c1c(n2CCc2ccc(C(F)(F)F)nc2)CCN(C)C1 [Compound 342, 8-Isopropyl-2-methyl-5-[2-(6-trifluoromethyl-pyridin-3-yl)-ethyl]-2,3,4,5-tetrahydro-1H-pyrido[4,3-b]indole] | 73 | 29 |  |  | 74 | 108 | 39 | 80
6 | CN1CCc2c(c3cc(Cl)c(F)cc3n2CCc2ccc(C(F)(F)F)nc2)C1 [Compound 343] | 69 | −7 |  |  | 89 | 117 | 29 | 98
7 | CN1CCc2c(c3cc(Cl)ccc3n2CCn2cccc2)C1 [Compound 349, 8-Chloro-2-methyl-5-(2-pyrrol-1-yl-ethyl)-2,3,4,5-tetrahydro-1H-pyrido[4,3-b]indole] | 98 | 86 |  |  | 97 | 111 | 94 | 111
8 | OC1CCC(N2CCc3c(c4cc(Cl)ccc4n3CCc3ccc(C(F)(F)F)nc3)C2)C1 (stereo not drawn) [Compound 351, 3-(8-chloro-5-(2-(6-(trifluoromethyl)pyridin-3-yl)ethyl)-3,4-dihydro-1H-pyrido[4,3-b]indol-2(5H)-yl)cyclopentanol] | 26 | 7 |  |  | 1 | 43 | -2 | 74
9 | Cc1ccc2c(n1)c1c(n2CCc2ccc(C(F)(F)F)nc2)CCN(C)C1 [Compound 353, 9-aza-2,8-dimethyl-5-(2-(6-(trifluoromethyl)pyridin-3-yl)ethyl)-2,3,4,5-tetrahydro-1H-pyrido[4,3-b]indole] | −15 | 5 |  |  | −1 | 11 | -2 | 10
10 | CCc1ccc2c(c1)c1c(n2CCc2ccc(C)nc2)CCN(C)C1 [Compound 357, 8-Ethyl-2-methyl-5-[2-(6-methyl-pyridin-3-yl)-ethyl]-2,3,4,5-tetrahydro-1H-pyrido[4,3-b]indole] | 67 | 47 |  |  | 69 | 106 | 68 | 101
11 | CCc1ccc2c(c1)c1c(n2CCc2ccc(C(F)(F)F)nc2)CCN(C)C1 [Compound 358, 8-Ethyl-2-methyl-5-[2-(6-trifluoromethyl-pyridin-3-yl)-ethyl]-2,3,4,5-tetrahydro-1H-pyrido[4,3-b]indole] | 78 | 38 |  |  | 95 | 109 | 47 | 94
12 | CCc1ccc(CCn2c3c(c4cc(C)ccc42)CN(C)CC3)cn1 [Compound 359, 5-[2-(6-Ethyl-pyridin-3-yl)-ethyl]-2,8-dimethyl-2,3,4,5-tetrahydro-1H-pyrido[4,3-b]indole] | 91 | 51 |  |  | 96 | 90 | 94 | 99
13 | Cc1ccc2c(c1)c1c(n2CCc2ccc(C(C)C)nc2)CCN(C)C1 [Compound 360, 5-[2-(6-Isopropyl-pyridin-3-yl)-ethyl]-2,8-dimethyl-2,3,4,5-tetrahydro-1H-pyrido[4,3-b]indole] | 83 | 37 |  |  | 97 | 115 | 75 | 101
14 | Cc1ncc(CCn2c3c(c4cc(Cl)ccc42)CN(C)CC3)cn1 [Compound 361, 8-Chloro-2-methyl-5-[2-(2-methyl-pyrimidin-5-yl)-ethyl]-2,3,4,5-tetrahydro-1H-pyrido[4,3-b]indole] | 58 | 31 |  |  | 60 | 94 | 25 | 106
15 | CCc1ccc2c(c1)c1c(n2CCc2cnc(C)nc2)CCN(C)C1 [Compound 362, 8-Ethyl-2-methyl-5-[2-(2-methyl-pyrimidin-5-yl)-ethyl]-2,3,4,5-tetrahydro-1H-pyrido[4,3-b]indole] | 40 | 17 |  |  | 27 | 82 | 19 | 98
